Key:
Assay in all cases: relative viability (nuclei count vs DMSO), 5 days (fraction); higher = more cells survive
[1] = compound: CC1=CC(=NN1)NC2=CC(=NC(=N2)/C=C/C3=CC=CC=C3)N4CCN(CC4)C + NC(=O)Nc1cc(-c2cccc(F)c2)sc1C(=O)N[C@H]1CCCNC1 [AZD7762] (partner 0.2 µM)
In short: (§1)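 Values are medians from duplicate plates. Each reflects relative viability, defined as the nuclei count of treated wells over that of vehicle wells. Lung cancer cell lines in 1536-well plates were pin-tool dosed one day after seeding with one drug alone or with a fixed anchor-drug dose plus five library-drug doses (not always all listed) in √10 steps, then fixed, stained and imaged at 4× after 5 days.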

[2] = compound: CC1=CC(=NN1)NC2=CC(=NC(=N2)/C=C/C3=CC=CC=C3)N4CCN(CC4)C + CC(=O)c1c(C)c2cnc(Nc3ccc(N4CCNCC4)cn3)nc2n(C2CCCC2)c1=O [Palbociclib] (partner 0.5 µM)
In short: as §1

[3] = compound: CC1=CC(=NN1)NC2=CC(=NC(=N2)/C=C/C3=CC=CC=C3)N4CCN(CC4)C + Nc1ncn([C@H]2C[C@H](O)[C@@H](CO)O2)c(=O)n1 [Decitabine] (partner 2 µM)
In short: as §1

Obatoclax + Decitabine = compound: COC1=CC(c2cc3ccccc3[nH]2)=N/C1=C\c1[nH]c(C)cc1C [Obatoclax] + Nc1ncn([C@H]2C[C@H](O)[C@@H](CO)O2)c(=O)n1 [Decitabine] (partner 2 µM)
In short: as §1

Row | Cell Line | relative viability ([1]; first compound 0.08 µM) | relative viability ([1]; first compound 0.253 µM) | relative viability ([1]; first compound 0.8 µM) | relative viability ([1]; first compound 2.53 µM) | relative viability ([1]; first compound 8 µM) | relative viability ([2]; first compound 0.08 µM) | relative viability ([2]; first compound 0.253 µM) | relative viability ([2]; first compound 0.8 µM) | relative viability ([2]; first compound 2.53 µM) | relative viability ([2]; first compound 8 µM) | relative viability ([3]; first compound 0.08 µM) | relative viability ([3]; first compound 0.253 µM) | relative viability ([3]; first compound 0.8 µM) | relative viability ([3]; first compound 2.53 µM) | relative viability ([3]; first compound 8 µM) | relative viability (Obatoclax + Decitabine; first compound 0.01 µM) | relative viability (Obatoclax + Decitabine; first compound 0.03162 µM) | relative viability (Obatoclax + Decitabine; first compound 0.3162 µM) | relative viability (Obatoclax + Decitabine; first compound 1 µM) | relative viability (Obatoclax + Decitabine; first compound 0.1 µM)
1 | H3255 | 0.866 | 0.935 | 0.955 | 0.782 | 0.374 | 0.322 | 0.319 | 0.345 | 0.313 | 0.267 | 0.52 | 0.54 | 0.496 | 0.499 | 0.249 | 0.595 | 0.581 | 0.589 | 0.623 | 
2 | NCI-H1734 | 0.524 | 0.508 | 0.537 | 0.184 | 0.12 | 0.34 | 0.278 | 0.313 | 0.249 | 0.13 | 0.515 | 0.531 | 0.544 | 0.362 | 0.16 | 0.504 | 0.467 | 0.491 | 0.506 | 0.511
3 | NCI-H1915 | 0.76 | 0.698 | 0.754 | 0.304 | 0.352 | 0.531 | 0.526 | 0.484 | 0.354 | 0.226 | 0.241 | 0.273 | 0.261 | 0.238 | 0.168 | 0.268 | 0.267 | 0.256 | 0.272 | 0.24
4 | NCI-H1651 | 0.437 | 0.483 | 0.463 | 0.335 | 0.0886 | 0.525 | 0.536 | 0.496 | 0.462 | 0.266 | 0.356 | 0.597 | 0.613 | 0.322 | 0.132 | 0.582 | 0.338 | 0.355 | 0.495 | 0.434
5 | HOP-62 | 0.673 | 0.615 | 0.778 | 0.385 | 0.159 | 0.41 | 0.458 | 0.492 | 0.371 | 0.154 | 0.203 | 0.191 | 0.212 | 0.197 | 0.166 | 0.257 | 0.177 | 0.277 | 0.214 | 0.206
6 | LCLC-103H | 0.746 | 0.807 | 0.775 | 0.723 | 0.576 | 0.44 | 0.438 | 0.491 | 0.422 | 0.349 | 0.746 | 0.774 | 0.72 | 0.713 | 0.64 | 0.7 | 0.728 | 0.763 | 0.738 | 0.784
7 | NCI-H3122 | 0.963 | 0.943 | 1 | 0.944 | 0.408 | 0.207 | 0.19 | 0.224 | 0.174 | 0.165 | 0.372 | 0.364 | 0.46 | 0.379 | 0.298 | 0.434 | 0.489 | 0.435 | 0.453 | 0.39
8 | NCI-H1395 | 0.399 | 0.389 | 0.346 | 0.315 | 0.332 | 0.557 | 0.635 | 0.628 | 0.433 | 0.285 | 0.7 | 0.771 | 0.708 | 0.514 | 0.291 | 0.716 | 0.735 | 0.695 | 0.513 | 0.754
9 | PC-14 | 0.346 | 0.446 | 0.354 | 0.28 | 0.0653 | 0.526 | 0.497 | 0.443 | 0.22 | 0.0464 | 0.179 | 0.2 | 0.253 | 0.0601 | 0.0537 | 0.209 | 0.17 | 0.0898 | 0.0842 | 0.147
10 | NCI-H2342 | 0.368 | 0.535 | 0.589 | 0.371 | 0.256 | 0.531 | 0.517 | 0.532 | 0.527 | 0.492 | 0.753 | 0.774 | 0.662 | 0.703 | 0.641 | 0.724 | 0.782 | 0.732 | 0.812 | 0.758
11 | BEN | 0.734 | 0.726 | 0.667 | 0.508 | 0.283 | 0.421 | 0.459 | 0.511 | 0.437 | 0.328 | 0.633 | 0.835 | 0.706 | 0.381 | 0.337 | 0.756 | 0.553 | 0.624 | 0.659 | 0.393
12 | EPLC-272H | 0.17 | 0.209 | 0.196 | 0.116 | 0.0909 | 0.299 | 0.342 | 0.319 | 0.291 | 0.204 | 0.345 | 0.373 | 0.36 | 0.245 | 0.163 | 0.368 | 0.349 | 0.314 | 0.303 | 0.43
13 | LK-2 | 0.245 | 0.364 | 0.323 | 0.0834 | 0.0556 | 0.61 | 0.691 | 0.547 | 0.33 | 0.0792 | 0.215 | 0.327 | 0.274 | 0.175 | 0.0787 | 0.365 | 0.242 | 0.268 | 0.395 | 0.335
